# Data reported in patent publication US12312337B2, “Compounds and methods for treating cancer” (ANTIDOTE IP HOLDINGS, LLC, priority 2019, dated 2025).
# Biological target: T1, human AhR (Homo sapiens, UniProt P35869)
# T1 construct: INDIGO's Aryl Hydrocarbon Receptor (AhR) Reporter Cells include the luciferase reporter gene functionally linked to an AhR-responsive promoter
# T1 sequence (P35869 11-848): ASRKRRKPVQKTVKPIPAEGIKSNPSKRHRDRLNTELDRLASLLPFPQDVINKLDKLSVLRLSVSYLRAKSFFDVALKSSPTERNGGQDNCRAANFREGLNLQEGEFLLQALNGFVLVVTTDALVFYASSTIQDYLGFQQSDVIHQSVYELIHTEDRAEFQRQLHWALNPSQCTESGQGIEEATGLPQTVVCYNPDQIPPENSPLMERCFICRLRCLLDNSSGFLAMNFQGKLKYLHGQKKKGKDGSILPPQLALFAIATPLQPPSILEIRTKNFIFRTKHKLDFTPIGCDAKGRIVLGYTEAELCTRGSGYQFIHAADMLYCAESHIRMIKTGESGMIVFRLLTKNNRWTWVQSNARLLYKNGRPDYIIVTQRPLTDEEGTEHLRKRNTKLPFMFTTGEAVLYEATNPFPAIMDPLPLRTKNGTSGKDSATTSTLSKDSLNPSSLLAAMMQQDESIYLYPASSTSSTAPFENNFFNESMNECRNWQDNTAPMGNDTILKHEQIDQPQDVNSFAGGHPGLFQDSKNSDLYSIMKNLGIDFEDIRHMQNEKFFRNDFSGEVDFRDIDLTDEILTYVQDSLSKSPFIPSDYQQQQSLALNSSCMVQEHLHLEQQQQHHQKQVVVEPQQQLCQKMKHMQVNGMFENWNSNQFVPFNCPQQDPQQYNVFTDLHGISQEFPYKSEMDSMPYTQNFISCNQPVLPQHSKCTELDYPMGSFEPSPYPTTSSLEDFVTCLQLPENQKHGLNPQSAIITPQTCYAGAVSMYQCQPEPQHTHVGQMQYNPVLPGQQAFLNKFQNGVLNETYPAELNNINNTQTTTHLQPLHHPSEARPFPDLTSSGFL
# Test: INDIGO AhR Reporter Assay (luciferase reporter cells, antagonist mode)
# Format: cell-based
# Conditions: antagonist mode with 50 nM of VAF347 (AhR agonist); 22-24 hours incubation; luciferase RLU
# Description: INDIGO's Aryl Hydrocarbon Receptor (AhR) Reporter Cells include the luciferase reporter gene functionally linked to an AhR-responsive promoter. Thus, quantifying changes in luciferase expression in the treated reporter cells provides a sensitive surrogate measure of the changes in AhR activity. The principle application of this reporter assay is in the screening of test samples to quantify any functional activity, either agonist or antagonist, that they may exert against human AhR. Reporter Cells incorporate the cDNA encoding beetle luciferase, a 62 kD protein originating from the North American firefly (Photinus pyralis). Luciferase catalyzes the mono-oxidation of D-luciferin in a Mg^2+-dependent reaction that consumes 02 and ATP as co-substrates, and yields as products oxyluciferin, AMP, PPi, CO2, and photon emission. Luminescence intensity of the reaction is quantified using a luminometer, and is reported in terms of Relative Light Units (RLU's). In brief, 200 μl of Reporter Cells was dispensed into wells of the assay plate and pre-incubated for 4-6 hours. Following the pre-incubation period, culture media were discarded and 200 µl/well of the prepared 1×-concentration treatment media were added. Following 22-24 hours of incubation, treatment media were discarded and Luciferase Detection Reagent was added. The intensity of light emission (in units of “Relative Light Units” (RLU)) from each assay well was quantified using a plate-reading luminometer. The assay was run as a competitive binding assay in the antagonist mode with 50 nM of VAF347, a known AhR agonist.
# In Table 4, IC50 values are reported as A, B, C, or D. A represents an IC50 value of less than 100 nM. B represents an IC50 value of equal or greater than 100 nM and less than 500 nM. C represents an IC50 value of equal or greater than 500 nM and less than 1 μM. D represents an IC50 value of equal or greater than 1 μM.
row,IC50 [nM],SMILES
1,> 1000,"Cn1nc(C(F)(F)F)cc1NC(=O)c1ccc2cc(-c3cccnc3)cnc2c1 [Compound 77, N-[1-methyl-3-(trifluoromethyl)-1H-pyrazol-5-yl]-3-(pyridin-3-yl)quinoline-7-carboxamide]"
2,100 to 500,"Cn1nc(C(F)(F)F)cc1NC(=O)c1ccc2cc(-c3ccncc3)cnc2c1 [Compound 78, N-[1-methyl-3-(trifluoromethyl)-1-pyrazol-yl]-3-(pyridin-4-yl)quinoline-7-carboxamide]"
3,> 1000,"O=C(Nc1ccc(C(F)(F)F)nc1)c1ccc2c(N3CCOCC3)ccnc2c1 [Compound 80, 4-morpholino-N-(6-(trifluoromethyl)pyridin-3-yl)quinoline-7-carboxamide]"
4,100 to 500,"Cc1ccccc1-c1cnc2cc(C(=O)Nc3ccc(C(F)(F)F)nc3)ccc2c1 [Compound 81, 3-(o-tolyl)-N-(6-(trifluoromethyl)pyridin-3-yl)quinoline-7-carboxamide]"
5,500 to 1000,"O=C(Nc1ccc(C(F)(F)F)nc1)c1ccc2cc(-c3nccs3)cnc2c1 [Compound 83, 3-(thiazol-2-yl)-N-(6-(trifluoromethyl)pyridin-3-yl)quinoline-7-carboxamide]"
6,500 to 1000,"Cn1cc(-c2ccccc2)nc1NC(=O)c1cc2ncccc2cc1Cl [Compound 90, 6-chloro-N-(1-methyl-4-phenyl-1H-imidazol-2-yl)quinoline-7-carboxamide]"
7,< 100,"Cn1nc(C(F)(F)F)cc1NC(=O)c1ccc2cc(-c3nccs3)cnc2c1 [Compound 93, N-(1-methyl-3-(trifluoromethyl)-1H-pyrazol-5-yl)-3-(thiazol-2-yl)quinoline-7-carboxamide]"
8,< 100,"Cc1ccccc1-c1cc(NC(=O)c2ccc3cc(-c4ccc(F)cc4)cnc3c2)n(C)n1 [Compound 95, 3-(4-fluorophenyl)-N-(1-methyl-3-(o-tolyl)-1H-pyrazol-5-yl)quinoline-7-carboxamide]"
9,< 100,"Cc1ccccc1-c1cc(NC(=O)c2ccc3cc(-c4ccc(F)cc4F)cnc3c2)n(C)n1 [Compound 96, 3-(2,4-difluorophenyl)-N-(1-methyl-3-(o-tolyl)-1H-pyrazol-5-yl)quinoline-7-carboxamide]"
10,< 100,"Cc1ccccc1-c1cc(NC(=O)c2ccc3cc(-c4cccs4)cnc3c2)n(C)n1 [Compound 97, N-(1-methyl-3-(o-tolyl)-1H-pyrazol-5-yl)-3-(thiophen-2-yl)quinoline-7-carboxamide]"
11,100 to 500,"Cn1nc(C(F)(F)F)cc1NC(=O)c1ccc2cc(-c3ccncc3F)cnc2c1 [Compound 98, 3-(3-fluoropyridin-4-yl)-N-[1-methyl-3-(trifluoromethyl)-1H-pyrazol-5-yl]quinoline-7-carboxamide]"
12,> 1000,"CC(C)Oc1ccnc2cc(C(=O)Nc3cc(C(F)(F)F)nn3C)ccc12 [Compound 99, 4-Isopropoxy-N-[1-methyl-3-(trifluoromethyl)-1H-pyrazol-5-yl]quinoline-7-carboxamide]"
13,< 100,"Cn1nc(C(F)(F)F)cc1NC(=O)c1ccc2cc(-c3ccccn3)cnc2c1 [Compound 100, N-(1-methyl-3-(trifluoromethyl)-1H-pyrazol-5-yl)-3-(pyridine-2-yl)quinoline-7-carboxamide]"
14,< 100,"Cn1nc(C(F)(F)F)cc1NC(=O)c1ccc2cc(-c3ccc(F)cn3)cnc2c1 [Compound 101, 3-(5-fluoropyridin-2-yl)-N-(1-methyl-3-(trifluoromethyl)-1H-pyrazol-5-yl)quinoline-7-carboxamide]"
15,< 100,"Cn1nc(C(F)(F)F)cc1NC(=O)c1ccc2cc(-c3ncc(F)cn3)cnc2c1 [Compound 123, 3-(5-fluoropyrimidin-2-yl)-N-[1-methyl-3-(trifluoromethyl)-1H-pyrazol-5-yl]quinoline-7-carboxamide]"
16,< 100,"Cn1nc(C(F)(F)F)cc1NC(=O)c1ccc2cc(-c3ncc(F)cc3F)cnc2c1 [Compound 124, 3-(3,5-difluoropyridin-2-yl)-N-[l-methyl-3-(trifluoromethyl)-1H-pyrazol-5-yl]quinoline-7-carboxamide]"
